The subject of the assay is CD2F1 mice, L1210 leukemia ip, survival T/C. In words: NCI In Vivo Anticancer Drug Screen. Data for tumor model L1210 Leukemia (intraperitoneal) in CD2F1 (CDF1) mice. Particulars: higher = longer survival. The method, boiled down: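 Implant tumor; dose compound or vehicle; measure endpoint in both groups; report treated divided by control.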
Setting [1] is: endpoint: mean survival time, dose: 100.0 mg/kg/injection, schedule: Q04DX003 (ip), vehicle: saline with Tween-80.
The mark [2] stands for this setting: endpoint: mean survival time, dose: 100.0 mg/kg/injection, schedule: Q01DX009 (ip), vehicle: saline with Tween-80.
Setting [3] is: endpoint: mean survival time, dose: 200.0 mg/kg/injection, schedule: Q01DX009 (ip), vehicle: saline with Tween-80.
Setting [4] is: endpoint: mean survival time, dose: 200.0 mg/kg/injection, schedule: Q04DX003 (ip), vehicle: saline with Tween-80.
Where [5] appears, read: endpoint: mean survival time, dose: 400.0 mg/kg/injection, schedule: Q04DX003 (ip), vehicle: saline with Tween-80.
[6] abbreviates: endpoint: mean survival time, dose: 100.0 mg/kg/injection, schedule: Q01DX001 (ip), vehicle: saline.
Where [7] appears, read: endpoint: mean survival time, dose: 200.0 mg/kg/injection, schedule: Q01DX001 (ip), vehicle: saline.
[8] abbreviates: endpoint: mean survival time, dose: 25.0 mg/kg/injection, schedule: Q01DX009 (ip), vehicle: saline.
Setting [9] is: endpoint: mean survival time, dose: 50.0 mg/kg/injection, schedule: Q01DX009 (ip), vehicle: saline.
Where [10] appears, read: endpoint: mean survival time, dose: 100.0 mg/kg/injection, schedule: Q01DX009 (ip), vehicle: saline.
[11] abbreviates: endpoint: mean survival time, dose: 200.0 mg/kg/injection, schedule: Q01DX009 (ip), vehicle: saline.
The mark [12] stands for this setting: endpoint: mean survival time, dose: 12.5 mg/kg/injection, schedule: Q01DX009 (ip), vehicle: saline with Tween-80.
Setting [13] is: endpoint: mean survival time, dose: 50.0 mg/kg/injection, schedule: Q01DX009 (ip), vehicle: saline with Tween-80.
Where [14] appears, read: endpoint: mean survival time, dose: 100.0 mg/kg/injection, schedule: Q01DX001 (ip), vehicle: saline with Tween-80.
The mark [15] stands for this setting: endpoint: mean survival time, dose: 200.0 mg/kg/injection, schedule: Q01DX001 (ip), vehicle: saline with Tween-80.
Setting [16] is: endpoint: mean survival time, dose: 400.0 mg/kg/injection, schedule: Q01DX009 (ip), vehicle: saline with Tween-80.

“And” between values parts separate entries of the source, which are not always exact repeats. Identical values can stand only once. Inconclusive results and toxic doses are left out.

`Oc1cccc2c1NCCC2`: the T/C by setting is: (endpoint: mean survival time, dose: 25.0 mg/kg/injection, schedule: Q04DX003 (ip), vehicle: saline with Tween-80) 104 % of control; (endpoint: mean survival time, dose: 50.0 mg/kg/injection, schedule: Q04DX003 (ip), vehicle: saline with Tween-80) 98 % of control; under setting [1], 91 % of control and 102 % of control.

In the case of `CCN(CC)c1cc(Nc2c3ccc(Cl)cc3nc3cc(Cl)ccc23)ccc1O`, the T/C is 102 % of control under setting [2]; 97 % of control under setting [1]; 104 % of control under setting [3]; 100 % of control under setting [4]; 117 % of control under setting [5].

For the compound `O=C1c2ccccc2C(=O)c2c(O)c3c(c(O)c21)CCCC3O` (stereo unspecified), the T/C is, setting by setting: (endpoint: mean survival time, dose: 0.05 mg/kg/injection, schedule: Q01DX001 (ip), vehicle: saline) 101 % of control; (endpoint: mean survival time, dose: 0.1 mg/kg/injection, schedule: Q01DX001 (ip), vehicle: saline) 98 % of control; (endpoint: mean survival time, dose: 0.2 mg/kg/injection, schedule: Q01DX001 (ip), vehicle: saline) 101 % of control; (endpoint: mean survival time, dose: 0.4 mg/kg/injection, schedule: Q01DX001 (ip), vehicle: saline) 101 % of control; (endpoint: mean survival time, dose: 0.8 mg/kg/injection, schedule: Q01DX001 (ip), vehicle: saline) 101 % of control.

For the compound `C/C(=C/C(=O)O)C(=O)O.[NH-]C1CCCCC1[NH-].[Pt+2]`, the T/C is 100 % of control and 107 % of control (endpoint: median survival time, dose: 3.12 mg/kg/injection, schedule: Q04DX003 (ip), vehicle: saline); 96 % of control and 109 % of control (endpoint: median survival time, dose: 6.25 mg/kg/injection, schedule: Q04DX003 (ip), vehicle: saline); 108 % of control (endpoint: median survival time, dose: 12.5 mg/kg/injection, schedule: Q04DX003 (ip), vehicle: saline); 116 % of control and 111 % of control (endpoint: median survival time, dose: 25.0 mg/kg/injection, schedule: Q04DX003 (ip), vehicle: saline); 116 % of control and 120 % of control (endpoint: median survival time, dose: 50.0 mg/kg/injection, schedule: Q04DX003 (ip), vehicle: saline); 153 % of control and 185 % of control (endpoint: median survival time, dose: 200.0 mg/kg/injection, schedule: Q04DX003 (ip), vehicle: saline).

As to `C=C1C(=O)OC2CCCCC3OC3C12` (stereo unspecified), the T/C runs as follows: (endpoint: mean survival time, dose: 25.0 mg/kg/injection, schedule: Q01DX001 (ip), vehicle: saline) 108 % of control; (endpoint: mean survival time, dose: 50.0 mg/kg/injection, schedule: Q01DX001 (ip), vehicle: saline) 96 % of control; under setting [6], 91 % of control.

Regarding `CC(Cc1ccc2c(c1)OCO2)NCC(O)c1ccc(O)c(O)c1` (stereo unspecified), the T/C is, setting by setting: under setting [6], 103 % of control; under setting [7], 109 % of control.

Turning to `Cc1cc(SCC(=O)c2ccc(Br)cc2)cc(C)[o+]1`, the T/C runs as follows: (endpoint: mean survival time, dose: 6.25 mg/kg/injection, schedule: Q01DX009 (ip), vehicle: saline) 96 % of control and 104 % of control; (endpoint: mean survival time, dose: 12.5 mg/kg/injection, schedule: Q01DX009 (ip), vehicle: saline) 102 % of control and 108 % of control; under setting [8], 96 % of control and 108 % of control; under setting [9], 92 % of control and 96 % of control; under setting [10], 102 % of control; under setting [11], 86 % of control.

Consider `O=c1nc2n(CCO)c3ccccc3cc-2c(=O)[nH]1`, for which the T/C under setting [6] was 95 % of control; the T/C under setting [7] is 95 % of control; the T/C (endpoint: mean survival time, dose: 400.0 mg/kg/injection, schedule: Q01DX001 (ip), vehicle: saline) was 89 % of control.

As for `CN(C)C=Nc1cccc2[nH]c3ccccc3c12`, the T/C runs as follows: under setting [12], 92 % of control; (endpoint: mean survival time, dose: 25.0 mg/kg/injection, schedule: Q01DX009 (ip), vehicle: saline with Tween-80) 104 % of control; under setting [13], 97 % of control; under setting [14], 92 % of control; under setting [2], 103 % of control; under setting [15], 101 % of control.

On to `O=C(NO)c1ccccc1`, for which the T/C by setting is: under setting [8], 96 % of control; under setting [9], 94 % of control; under setting [14], 110 % of control; (endpoint: mean survival time, dose: 100.0 mg/kg/injection, schedule: Q01DX009 (ip), vehicle: saline sonified) 103 % of control; under setting [10], 98 % of control and 109 % of control; under setting [1], 98 % of control. Also, the T/C reads like this: under setting [15], 103 % of control; (endpoint: mean survival time, dose: 200.0 mg/kg/injection, schedule: Q01DX009 (ip), vehicle: saline sonified) 115 % of control; under setting [11], 121 % of control and 102 % of control; under setting [4], 96 % of control; (endpoint: mean survival time, dose: 400.0 mg/kg/injection, schedule: Q01DX001 (ip), vehicle: saline with Tween-80) 117 % of control; under setting [5], 116 % of control.

For `OC1CC2C3C4C1C1C2C3C41` (stereo unspecified), the T/C is, setting by setting: under setting [2], 104 % of control; under setting [1], 107 % of control; under setting [3], 95 % of control; under setting [4], 98 % of control; under setting [16], 95 % of control; under setting [5], 97 % of control.

Turning to `O=CNc1cc2ccccc2c2ccc3ccccc3c12`, the T/C was 94 % of control under setting [13]; 94 % of control under setting [2]; 89 % of control under setting [1]; 97 % of control under setting [3]; 89 % of control under setting [4].

For the compound `O=C(O)c1ccccc1NCc1ccccc1`, the T/C under setting [1] is 100 % of control, the T/C under setting [4] is 96 % of control and the T/C under setting [5] was 87 % of control.

For the compound `CCOC(=O)N1Cc2cc3ccccc3nc2C1`, the T/C is 100 % of control (endpoint: mean survival time, dose: 75.0 mg/kg/injection, schedule: Q01DX009 (ip), vehicle: saline with Tween-80) and 101 % of control (endpoint: mean survival time, dose: 150.0 mg/kg/injection, schedule: Q01DX009 (ip), vehicle: saline with Tween-80).

Turning to `ClC(c1ccccc1)C(Cl)c1ccccc1` (stereo unspecified), the T/C was 102 % of control (endpoint: mean survival time, dose: 3.13 mg/kg/injection, schedule: Q01DX009 (ip), vehicle: saline with Tween-80); 102 % of control (endpoint: mean survival time, dose: 6.25 mg/kg/injection, schedule: Q01DX009 (ip), vehicle: saline with Tween-80); 91 % of control and 95 % of control under setting [12].

As for `CCCCNc1ccc2nnc(C)n2n1`, the T/C (endpoint: median survival time, dose: 50.0 mg/kg/injection, schedule: Q01DX005 (ip), vehicle: DMSO) was 100 % of control and 101 % of control; the T/C (endpoint: median survival time, dose: 100.0 mg/kg/injection, schedule: Q01DX005 (ip), vehicle: DMSO) was 97 % of control and 100 % of control; the T/C (endpoint: median survival time, dose: 200.0 mg/kg/injection, schedule: Q01DX005 (ip), vehicle: DMSO) is 104 % of control.

With `CC(=O)OC1C2CCC(C2)C1C` (stereo unspecified), the T/C was 95 % of control under setting [1], 92 % of control under setting [4] and 92 % of control under setting [5].

Turning to `COc1ccc(NC(=O)Nc2cc(OC)c(Cl)cc2OC)cc1`, the T/C runs as follows: (endpoint: mean survival time, dose: 100.0 mg/kg/injection, schedule: Q04DX002 (ip), vehicle: saline with Tween-80) 96 % of control; (endpoint: mean survival time, dose: 200.0 mg/kg/injection, schedule: Q04DX002 (ip), vehicle: saline with Tween-80) 89 % of control; (endpoint: mean survival time, dose: 400.0 mg/kg/injection, schedule: Q04DX002 (ip), vehicle: saline with Tween-80) 89 % of control.

As for `O=C1NN=C(C2CCCCC2)C12CCCCC2`, the T/C runs as follows: under setting [1], 96 % of control; under setting [4], 100 % of control; under setting [5], 94 % of control.

Regarding `O=C(Nc1c(Cl)cccc1Cl)Oc1ccc(Br)cc1`, the T/C runs as follows: under setting [13], 103 % of control; under setting [2], 103 % of control.

Regarding `CC(=O)CCc1ccc(O)cc1`, the T/C reads like this: under setting [2], 94 % of control; under setting [1], 97 % of control; under setting [3], 93 % of control; under setting [4], 92 % of control; under setting [16], 94 % of control; under setting [5], 92 % of control.

Regarding `[Cl][Pt+2][Cl].[NH-]CC(O)c1ccc2oc3ccccc3c2c1.[NH-]CC(O)c1ccc2oc3ccccc3c2c1` (stereo unspecified), the T/C is, setting by setting: (endpoint: median survival time, dose: 10.0 mg/kg/injection, schedule: Q04DX003 (ip), vehicle: saline) 104 % of control; (endpoint: median survival time, dose: 20.0 mg/kg/injection, schedule: Q04DX003 (ip), vehicle: saline) 108 % of control; (endpoint: median survival time, dose: 40.0 mg/kg/injection, schedule: Q04DX003 (ip), vehicle: saline) 104 % of control; (endpoint: median survival time, dose: 80.0 mg/kg/injection, schedule: Q04DX003 (ip), vehicle: saline with Tween-80) 109 % of control; (endpoint: median survival time, dose: 80.0 mg/kg/injection, schedule: Q04DX003 (ip), vehicle: saline) 108 % of control.

Take `CSc1ccc(NC(=O)CCl)cc1`: under setting [1], the T/C was 91 % of control.

Source of the values: PubChem BioAssay AID256 (DTP/NCI, 2004).
